Legend:
Assay type in all cases: in vivo
[1] = system: two spotted spidermite (Tetranychus urticae); experiment: Tetranychus urticae spray test OP-resistant (French bean leaf disks); details: for Efficacy in % after 2 d: mortality after 2 d
Excerpt: (§1) The expected activity for a given combination of two active compounds can be calculated according to S. R. Colby, Weeds 15 (1967), 20-22 as follows:
(§2) • X is the kill rate, expressed in % of the untreated control, when active compound A is applied at an application rate of m g/ha or at a concentration of m ppm, • Y is the kill rate, expressed in % of the untreated control, when active compound B is applied at an application rate of n g/ha or at a concentration of n ppm and • E is the kill rate, expressed in % of the untreated control, when active compounds A and B is applied at application rates of m and n g/ha or at a concentration of m and n ppm, then
(§3) If the observed insecticidal efficacy of the combination is higher than the one calculated as “E”, then the combination of the two compounds is more than additive, i.e., there is a synergistic effect.
(§4) Solvent: 78.0 parts by weight acetone • 1.5 parts by weight dimethylformamide Emulsifier: alkylarylpolyglycol ether
(§5) To produce a suitable preparation of active compound, 1 part by weight of active compound is mixed with the stated amount of solvents and is diluted with water, containing an emulsifier concentration of 1000 ppm, to the desired concentration. To produce a suitable preparation of a spore suspension the spores are diluted with emulsifier containing water to the desired concentration. Further test concentrations are prepared by dilution with emulsifier containing water.
French bean (Phaseolus vulgaris) leaf disks which are heavily infested with all stages of the two spotted spidermite (Tetranychus urticae), are sprayed with a preparation of the active ingredient of the desired concentration.
After the specified period of time, mortality in % is determined. 100% means all spider mites have been killed and 0% means none of the spider mites have been killed. The mortality values determined thus are recalculated using the Colby-formula (see sheet 1).

[2] = system: green peach aphid (Myzus persicae); experiment: Myzus persicae spray test (Chinese cabbage leaf disks); details: for Efficacy in % after 1 d: mortality after 1 d; for Efficacy in % after 6 d: mortality after 6 d
Excerpt: as §1, §2, §3, §4, §5
Chinese cabbage (Brassica pekinensis) leaf disks infected with all instars of the green peach aphid (Myzus persicae), are sprayed with a preparation of the active ingredient of the desired concentration.
After the specified period of time, mortality in % is determined. 100% means all aphids have been killed; 0% means none of the aphids have been killed. The mortality values determined thus are recalculated using the Colby-formula (see sheet 1).

[3] = system: mustard beetle larvae (Phaedon cochleariae); experiment: Phaedon cochleariae spray test (Chinese cabbage leaf disks); details: mortality after 6 d
Excerpt: as §1, §2, §3
Solvent: 78.0 parts by weight of acetone • • 1.5 parts by weight of dimethylformamide Emulsifier: alkylarylpolyglycol ether
as §5
Chinese cabbage (Brassica pekinensis) leaf disks are sprayed with a preparation of the active ingredient of the desired concentration. Once dry, the leaf disks are infested with mustard beetle larvae (Phaedon cochleariae).
After the specified period of time, mortality in % is determined. 100% means all beetle larvae have been killed and 0% means none of the beetle larvae have been killed. The mortality values determined thus are recalculated using the Colby-formula (see sheet 1).

For `O=C(NC(=O)c1c(F)cccc1F)Nc1cc(Cl)c(OC(F)(F)C(F)C(F)(F)F)cc1Cl` (centres unmarked) [Lufenuron], the “Efficacy in % after 2 d” value ([1]; 20 g ai/ha) was 0%.

In the case of `O=C1C=C(N(Cc2ccc(Cl)nc2)CC(F)F)CO1` [Flupyradifurone], the “Efficacy in % after 2 d” value ([1]; 0.8 g ai/ha) is reported as 0% and the “Efficacy in % after 2 d” value ([1]; 4 g ai/ha) is reported as 0%.

For Lepimectin, the “Efficacy in % after 1 d” value ([2]; 4 g ai/ha) was 0%, the “Efficacy in % after 6 d” value ([2]; 4 g ai/ha) was 0% and the “Efficacy in % after 1 d” value ([2]; 20 g ai/ha) was 0%. The “Efficacy in % after 6 d” value ([2]; 20 g ai/ha) was 0%.

With Milbemectin the “Efficacy in % after 6 d” value ([2]; 4 g ai/ha) was 0%.

`CCOP(=S)(OCC)Oc1nc(Cl)c(Cl)cc1Cl` [Chlorpyrifos] was tested, and the “Efficacy in % after 6 d” value ([1]; 4 g ai/ha, mortality after 6 d) was 0% and the “Efficacy in % after 2 d” value ([1]; 20 g ai/ha) was 0%.

With `O=C(NC(=O)c1c(F)cccc1F)Nc1ccc(OC(F)(F)C(F)OC(F)(F)F)c(Cl)c1` (centres unmarked) [Novaluron] the “Efficacy in % after 6 d” value ([3]; 100 g ai/ha) was 0%.

`N#CCNC(=O)c1cnccc1C(F)(F)F` [Flonicamid] was tested, and the “Efficacy in % after 2 d” value ([1]; 4 g ai/ha) was 0%.

`O=C(/N=c1\ccccn1Cc1ccc(Cl)nc1)C(F)(F)F` [N-[(2E)-1-[(6-chloropyridin-3-yl)methyl]pyridin-2(1H)-ylidene]-2,2,2-trifluoroacetamide] was tested, and the “Efficacy in % after 6 d” value ([3]; 100 g ai/ha) was 0%.

In the case of Abamectin, the “Efficacy in % after 6 d” value ([3]; 0.8 g ai/ha) is reported as 0%.

Source: patent publication US20170071204A1, “ACTIVE COMPOUND COMBINATIONS HAVING IN[…]” (priority 2014, published 2017)
